Data published in patent EP3360553B1, “MOLECULES AND PHARMACEUTICAL COMPOSITIONS, IN PARTICULAR FOR TREATING A GENETIC BLOOD DISORDER” (Université de La Réunion, priority 2017, dated 2018).

Legend:
laminin 521 [1] = assay: Red blood cell adhesion to laminin 521 under flow conditions; type: cell-based; conditions: RBCs from sickle cell disease patients incubated with molecule at 0.1 mM for 30 min at room temperature, recombinant human laminin 521, 3 blood samples
Procedure: (§1) In the figures: • Figure 1: Adhesion of RBCs from sickle cell disease patients (N = 3) to laminin 521. Results are presented as a percentage of adhesion, 100% of adhesion being the adhesion level observed for RBCs incubated with buffer supplemented with DMSO alone. • Figure 2: Adhesion of RBCs from sickle cell disease patients to laminin 521 in the presence of increasing concentrations of Molecule 2 and Molecule 3. Results are presented as a percentage of adhesion, 100% of adhesion being the adhesion level observed for RBCs incubated without the molecules.
Red blood cell adhesion to laminin 521 was measured under flow conditions using Vena8 Endothelial+™ biochips (internal channel dimensions: length 20 mm, width 0.8 mm, height 0.12 mm) and ExiGo™ Nanopumps (Cellix Ltd, Dublin, Ireland). Three different solutions were prepared with either Molecule 1, Molecule 2 or Molecule 3 (0.1 mM) by solubilizing Molecule 1, 2 or 3 using DMSO. Recombinant human laminin 521 (BioLamina) at 5 ng/µl was immobilized on the internal surface of the biochips at 4°C overnight. RBCs from sickle cell disease patients were suspended at 5x10^7 cells/ml in Hanks balanced salt solution, without calcium chloride and magnesium sulfate (Sigma-Aldrich) supplemented with 0.4% BSA, and incubated with the solution comprising either Molecule 1, Molecule 2 or Molecule 3 at 0.1 mM or DMSO, for 30 min at room temperature (20°C) and perfused through the biochip channels for 10 min at a shear stress of 0.5 dyn/cm^2 followed by a washout at the same shear stress with the buffer alone for 30 min. Five minutes washouts with the Hanks/0.4% BSA buffer were performed at 1, 2, 3, 4 and 5 dyn/cm^2. After each wash, adherent RBCs were counted in 7 representative areas along the centerline of each channel using the AxioObserver Z1 microscope and ZEN analysis software (Carl Zeiss, Le Pecq, France) and the mean number of adherent RBCs was determined for each condition and each washout step (Figure 1). Images of the same 7 areas were obtained throughout each experiment. […]

RBCs = assay: Control of hemolysis (RBC concentration by CASY Cell Counter and Analyzer); type: cell-based; conditions: 0.1 mM, 30 min incubation at room temperature; for RBCs/ml (x10^6): Hanks/0.4% BSA buffer, RBCs suspended at 6x10^6 cells/ml; for decrease of RBC concentration compared to vehicle (DMSO) alone: result in words
Procedure: (§2) At the end of the 30 min of incubation with the molecules, the number of RBC for the control of hemolysis was measure by using CASY® Cell Counter and Analyzer.
(§3) For hemolysis assays, RBCs were suspended at 6x10^6 cells/ml in the Hanks/0.4% BSA buffer and the concentration measured accurately using the CASY® Cell Counter and Analyzer. RBCs were then incubated with the solution comprising either Molecule 1, Molecule 2 or Molecule 3 at 0.1 mM or DMSO, for 30 min at room temperature. After this incubation time cell concentration was measured again using CASY® Cell Counter and Analyzer (Table 1). If hemolysis occurs during this incubation time it will be reflected by a decrease in the RBC concentration.

laminin 521 [2] = assay: Dose effect in the RBC adhesion assay to laminin 521; type: cell-based, human; conditions: 50, 100 and 200 µM; RBCs from sickle cell disease patients; same conditions as Example 1
Procedure: as §1
Red blood cell adhesion to laminin 521 was measured under flow conditions using Vena8 Endothelial+™ biochips (internal channel dimensions: length 20 mm, width 0.8 mm, height 0.12 mm) and ExiGo™ Nanopumps (Cellix Ltd, Dublin, Ireland). Three different solutions were prepared with either Molecule 1, Molecule 2 or Molecule 3 (0.1 mM) by solubilizing Molecule 1, 2 or 3 using DMSO. Recombinant human laminin 521 (BioLamina) at 5 ng/µl was immobilized on the internal surface of the biochips at 4°C overnight. […] After each wash, adherent RBCs were counted in 7 representative areas along the centerline of each channel using the AxioObserver Z1 microscope and ZEN analysis software (Carl Zeiss, Le Pecq, France) and the mean number of adherent RBCs was determined for each condition and each washout step (Figure 1). […]

[3] = Control of hemolysis (RBC concentration by CASY Cell Counter and Analyzer); type: cell-based; conditions: red blood cells; 0.1 mM, 30 min incubation at room temperature; compared to vehicle (DMSO); read-out: decrease of the RBC concentration
Procedure: as §2, §3

Compound	RBC adhesion to laminin (laminin 521 [1])	RBCs/ml (x10^6) (RBCs)	decrease of RBC concentration compared to vehicle (DMSO) alone (RBCs)	inhibition of RBC adhesion to laminin with increasing concentrations (laminin 521 [2])	hemolysis at 0.5 h, 100 µM [3] [%]
O=S(=O)(O)CCCn1c(=NN=Cc2c(O)ccc3ccccc23)sc2ccccc21 [Molecule 3]	inhibited	6.02 x10^6 RBCs/ml	no decrease	increasing inhibition	
Cc1c(CC(=O)NC(C(=O)O)c2ccccc2)c(=O)oc2c(C)c3oc4c(c3cc12)CCCC4 (centres unmarked) [Molecule 2]	inhibited	5.55 x10^6 RBCs/ml		increasing inhibition	< 10
CCC(=O)N1CCc2ccc(OCc3nc(C(=O)NCc4ccccc4)co3)cc2C1c1ccc(C)cc1 (centres unmarked) [Molecule 1]	not	6.04 x10^6 RBCs/ml	no decrease		
